Results reported in US9434714B2, “Pyrimidine imidazole amines as modulators of kinase activity” (Merck Patent GmbH, priority 2014, dated 2016).

Assays:
P70S6K (T412E mutant) = target: T1, P70S6K (T412E mutant) (Homo sapiens, UniProt P23443, T412E); assay: P70S6K enzyme assay; assay type: biochemical; settings: 24 μM ATP, 90 min at 25° C., mobility shift (Caliper)
T1 construct: purchased Millipore
Protocol: P70S6K inhibitor compounds were diluted and plated in 96 well plates. A reaction mixture including the following components was then added to the compound plate to initiate the enzyme reaction; P70S6K (3 nM, T412E mutant, Millipore) was mixed with 24 μM ATP in an assay buffer containing 100 mM Hepes (pH 7.5), 5 mM MgCl2, 1 mM DTT, 0.015% Brij and 1 μM of the substrate peptide FITC-AHA-AKRRRLSSLRA-OH (derived from the S6 ribosomal protein sequence, FITC=fluorescein isothiocyanate, AHA=6-aminohexanoic acid). The reaction was incubated for 90 min at 25° C., before the addition of 10 mM EDTA to stop the reaction. The proportion of substrate and product (phosphorylated) peptide was analysed on a Caliper Life Sciences Lab Chip 3000, using a pressure of −1.4 psi, and upstream and downstream voltages of −3000 and −700 respectively. Product peaks were resolved before substrate peaks on the resulting chromatograms.

His-AKT (Full Length) = target: T2, His-AKT (Full Length) (Homo sapiens, UniProt P31749); assay: AKT enzyme assay; assay type: biochemical; settings: 160 uM ATP, 90 min at 25 C, off-chip mobility shift (Caliper)
T2 construct: His-AKT (Full Length); His; purchased Invitrogen P2999
T2 sequence (P31749 whole entry): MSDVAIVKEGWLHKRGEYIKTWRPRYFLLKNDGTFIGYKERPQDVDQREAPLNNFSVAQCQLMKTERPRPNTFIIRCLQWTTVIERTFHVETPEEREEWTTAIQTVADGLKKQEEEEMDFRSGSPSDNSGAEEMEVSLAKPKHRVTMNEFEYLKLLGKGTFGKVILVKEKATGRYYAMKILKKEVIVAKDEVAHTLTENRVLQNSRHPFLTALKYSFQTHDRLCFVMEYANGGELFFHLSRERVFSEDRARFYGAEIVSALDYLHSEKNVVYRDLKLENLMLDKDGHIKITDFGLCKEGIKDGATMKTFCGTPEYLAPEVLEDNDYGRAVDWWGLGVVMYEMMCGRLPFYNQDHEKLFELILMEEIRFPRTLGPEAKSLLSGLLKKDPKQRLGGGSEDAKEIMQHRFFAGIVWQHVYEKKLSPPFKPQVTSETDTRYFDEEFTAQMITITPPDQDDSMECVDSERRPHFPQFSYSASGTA
Protocol: A TTP Mosquito liquid handling instrument was used to place 125 nl of the appropriate concentration of inhibitor in 100% DMSO (for a dose response curve calculation) into each well of a 384-well plate. To this reaction components were added to a final volume of 12.5 μl: • 0.1 ng/μ1 His-AKT (Full Length), (Invitrogen, Part # P2999, Lot #641228C). • 160 uM ATP (Fluka, 02055) • 1 mM DTT (Sigma, D0632) • 1 mM MgCl2 (Sigma, M1028) • 1 μM substrate peptide (sequence FITC-AHA-GRPRTSSFAEG-NH2), synthesized by Tufts Peptide Synthesis service. • 100 mM HEPES pH 7.5 (Calbiochem, 391338) • 0.015% Brij-35 (Sigma, B4184)
The reaction was incubated for 90 min at 25 C, and then stopped by the addition of 70 μl of Stop buffer (100 mM HEPES pH 7.5, 0.015% Brij-35, 10 mM EDTA (Sigma, E7889)).
The plate was read on a Caliper LC 3000 in an Off-Chip mobility shift assay format, using the following parameters for a 12-sipper chip: screening pressure—2.3 psi, upstream voltage—500, and downstream voltage—3000. These conditions cause unphosphorylated substrate and phosphorylated product peptide to resolve as separate peaks allowing direct measurement of percentage of conversion of substrate to product. The percent conversion was plotted against concentration of inhibitor to produce a sigmoidal dose response curve, from which an IC50 was calculated.

T1 sequence (P23443 whole entry T412E): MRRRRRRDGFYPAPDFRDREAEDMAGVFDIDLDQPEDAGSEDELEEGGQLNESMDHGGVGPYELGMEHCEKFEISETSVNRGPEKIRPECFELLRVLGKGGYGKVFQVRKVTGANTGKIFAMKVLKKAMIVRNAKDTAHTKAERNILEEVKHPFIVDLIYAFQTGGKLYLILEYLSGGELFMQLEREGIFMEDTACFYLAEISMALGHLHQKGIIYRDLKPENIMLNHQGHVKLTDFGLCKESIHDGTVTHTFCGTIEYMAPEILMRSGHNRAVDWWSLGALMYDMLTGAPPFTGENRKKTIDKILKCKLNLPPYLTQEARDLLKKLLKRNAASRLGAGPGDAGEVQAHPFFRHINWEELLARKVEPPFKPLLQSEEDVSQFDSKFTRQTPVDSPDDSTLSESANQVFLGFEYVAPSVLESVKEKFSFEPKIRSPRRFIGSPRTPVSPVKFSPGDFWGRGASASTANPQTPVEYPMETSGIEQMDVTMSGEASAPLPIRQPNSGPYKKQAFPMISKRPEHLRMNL

Compound: CCc1c(N)ncnc1N1CCC(c2nc(-c3ccc(F)c(C)c3)cn2CCN2CCC2)CC1 [Compound 1, 6-{4-[1-(2-Azetidin-1-yl-ethyl)-4-(4-fluoro-3-methyl-phenyl)-1H-imidazol-2-yl]-piperidin-1-yl}-5-ethyl-pyrimidin-4-ylamine]
- IC50 (P70S6K (T412E mutant)): < 3 nM
- IC50 (His-AKT (Full Length)): 3 to 15 nM

Compound: Cc1cc(-c2cn(CCN3CCC3)c(C3CCN(c4ncnc(N)c4Cl)CC3)n2)ccc1F [Compound 2, 6-{4-[1-(2-Azetidin-1-yl-ethyl)-4-(4-fluoro-3-methyl-phenyl)-1H-imidazol-2-yl]-piperidin-1-yl}-5-chloro-pyrimidin-4-ylamine]
- IC50 (P70S6K (T412E mutant)): < 3 nM
- IC50 (His-AKT (Full Length)): < 3 nM

Compound: CC(C)c1cc(-c2cn(CCN3CCC3)c(C3CCN(c4ncnc(N)c4C(C)C)CC3)n2)ccn1 [Compound 3, 6-{4-[1-(2-Azetidin-1-yl-ethyl)-4-(2-isopropyl-pyridin-4-yl)-1H-imidazol-2-yl]-piperidin-1-yl}-5-isopropyl-pyrimidin-4-ylamine]
- IC50 (P70S6K (T412E mutant)): 3 to 15 nM
- IC50 (His-AKT (Full Length)): 3 to 15 nM

Compound: Cc1cc(-c2cn(CCN3CCC3)c(C3CCN(c4ncnc(N)c4C(C)C)CC3)n2)ccc1F [Compound 4, 6-{4-[1-(2-Azetidin-1-yl-ethyl)-4-(4-fluoro-3-methyl-phenyl)-1H-imidazol-2-yl]-piperidin-1-yl}-5-isopropyl-pyrimidin-4-ylamine]
- IC50 (P70S6K (T412E mutant)): 3 to 15 nM
- IC50 (His-AKT (Full Length)): 3 to 15 nM

Compound: CC(C)c1c(N)ncnc1N1CCC(c2nc(-c3ccnc(C(F)(F)F)c3)cn2CCN2CCC2)CC1 [Compound 5, 6-{4-[1-(2-Azetidin-1-yl-ethyl)-4-(2-trifluoromethyl-pyridin-4-yl)-1H-imidazol-2-yl]-piperidin-1-yl}-5-isopropyl-pyrimidin-4-ylamine]
- IC50 (P70S6K (T412E mutant)): < 3 nM
- IC50 (His-AKT (Full Length)): 3 to 15 nM

Compound: Cc1cc(-c2cn(CC3CN(C)C3)c(C3CCN(c4ncnc(N)c4Cl)CC3)n2)ccc1F [Compound 6, 5-Chloro-6-{4-[4-(4-fluoro-3-methyl-phenyl)-1-(1-methyl-azetidin-3-ylmethyl)-1H-imidazol-2-yl]-piperidin-1-yl}-pyrimidin-4-ylamine]
- IC50 (P70S6K (T412E mutant)): 3 to 15 nM
- IC50 (His-AKT (Full Length)): 3 to 15 nM

Compound: Cc1cc(-c2cn(CCN3CCC3)c(C3CCN(c4ncnc(N)c4-c4ccn[nH]4)CC3)n2)ccc1F [Compound 7, 6-{4-[1-(2-Azetidin-1-yl-ethyl)-4-(4-fluoro-3-methyl-phenyl)-1H-imidazol-2-yl]-piperidin-1-yl}-5-(2H-pyrazol-3-yl)-pyrimidin-4-ylamine]
- IC50 (P70S6K (T412E mutant)): 3 to 15 nM
- IC50 (His-AKT (Full Length)): 3 to 15 nM

Compound: Cc1cc(-c2cn(CCN3CCC3)c(C3CCN(c4ncnc(N)c4-c4ccncc4)CC3)n2)ccc1F [Compound 8, 6-{4-[1-(2-Azetidin-1-yl-ethyl)-4-(4-fluoro-3-methyl-phenyl)-1H-imidazol-2-yl]-piperidin-1-yl}-5-pyridin-4-yl-pyrimidin-4-ylamine]
- IC50 (P70S6K (T412E mutant)): 3 to 15 nM
- IC50 (His-AKT (Full Length)): 3 to 15 nM

Compound: Cc1cc(-c2cn(CCN3CCC3)c(C3CCN(c4ncnc(N)c4-c4cccnc4)CC3)n2)ccc1F [Compound 9, 6-{4-[1-(2-Azetidin-1-yl-ethyl)-4-(4-fluoro-3-methyl-phenyl)-1H-imidazol-2-yl]-piperidin-1-yl}-5-pyridin-3-yl-pyrimidin-4-ylamine]
- IC50 (P70S6K (T412E mutant)): 3 to 15 nM
- IC50 (His-AKT (Full Length)): 3 to 15 nM

Compound: CCOc1c(N)ncnc1N1CCC(c2nc(-c3ccnc(C(C)C)c3)cn2CCN2CCC2)CC1 [Compound 10, 6-{4-[1-(2-Azetidin-1-yl-ethyl)-4-(2-isopropyl-pyridin-4-yl)-1H-imidazol-2-yl]-piperidin-1-yl}-5-ethoxy-pyrimidin-4-ylamine]
- IC50 (P70S6K (T412E mutant)): 3 to 15 nM
- IC50 (His-AKT (Full Length)): 3 to 15 nM

Compound: CC(C)c1cc(-c2cn(CCN3CCC3)c(C3CCN(c4ncnc(N)c4C4CCC4)CC3)n2)ccn1 [Compound 11, 6-{4-[1-(2-Azetidin-1-yl-ethyl)-4-(2-isopropyl-pyridin-4-yl)-1H-imidazol-2-yl]-piperidin-1-yl}-5-cyclobutyl-pyrimidin-4-ylamine]
- IC50 (P70S6K (T412E mutant)): 3 to 15 nM
- IC50 (His-AKT (Full Length)): < 3 nM

Compound: CC(C)Oc1c(N)ncnc1N1CCC(c2nc(-c3ccnc(C(C)C)c3)cn2CCN2CCC2)CC1 [Compound 12, 6-{4-[1-(2-Azetidin-1-yl-ethyl)-4-(2-isopropyl-pyridin-4-yl)-1H-imidazol-2-yl]-piperidin-1-yl}-5-isopropoxy-pyrimidin-4-ylamine]
- IC50 (P70S6K (T412E mutant)): 3 to 15 nM
- IC50 (His-AKT (Full Length)): 3 to 15 nM

Compound: CC(C)c1cc(-c2cn(CCN3CCC3)c(C3CCN(c4ncnc(N)c4-c4ccncc4)CC3)n2)ccn1 [Compound 13, 6-{4-[1-(2-Azetidin-1-yl-ethyl)-4-(2-isopropyl-pyridin-4-yl)-1H-imidazol-2-yl}-piperidin-1-yl]-5-Pyridin-4-yl-pyrimidin-4-ylamine]
- IC50 (P70S6K (T412E mutant)): 3 to 15 nM
- IC50 (His-AKT (Full Length)): > 15 nM

Compound: CC(C)c1cc(-c2cn(CCN3CCC3)c(C3CCN(c4ncnc(N)c4OCC(F)(F)F)CC3)n2)ccn1 [Compound 14, 6-{4-[1-(2-Azetidin-1-yl-ethyl)-4-(2-isopropyl-pyridin-4-yl)-1H-imidazol-2-yl}-piperidin-1-yl]-5-(2,2,2-trifluoro-ethoxy)-Pyrimidin-4-ylamine]
- IC50 (P70S6K (T412E mutant)): 3 to 15 nM
- IC50 (His-AKT (Full Length)): 3 to 15 nM

Compound: CC(C)c1cc(-c2cn(CCN3CCC3)c(C3CCN(c4ncnc(N)c4C=O)CC3)n2)ccn1 [Compound 15, 4-Amino-6-{4-[1-(2-azetidin-1-yl-ethyl)-4-(2-isopropyl-pyridin-4-yl)-1H-imidazol-2-yl]-piperidin-1-yl}-pyrimidine-5-carbaldehyde]
- IC50 (P70S6K (T412E mutant)): < 3 nM
- IC50 (His-AKT (Full Length)): 3 to 15 nM

Compound: Cc1cc(-c2cn(CCN3CCC3)c(C3CCN(c4ncnc(N)c4C4CC4)CC3)n2)ccc1F [Compound 16, 6-{4-[1-(2-Azetidin-1-yl-ethyl)-4-(4-fluoro-3-methyl-phenyl)-1H-imidazol-2-yl]-piperidin-1-yl}-5-cyclopropyl-pyrimidin-4-ylamine]
- IC50 (P70S6K (T412E mutant)): < 3 nM
- IC50 (His-AKT (Full Length)): < 3 nM

Compound: CC(C)c1cc(-c2cn(CCN3CCC3)c(C3CCN(c4ncnc(N)c4C4CC4)CC3)n2)ccn1 [Compound 17, 6-{4-[1-(2-Azetidin-1-yl-ethyl)-4-(2-isopropyl-pyridin-4-yl)-1H-imidazol-2-yl]-piperidin-1-yl}-5-cyclopropyl-pyrimidin-4-ylamine]
- IC50 (P70S6K (T412E mutant)): 3 to 15 nM
- IC50 (His-AKT (Full Length)): 3 to 15 nM

Compound: CC(C)c1cc(-c2cn(CCN3CCC3)c(C3CCN(c4ncnc(N)c4-c4ccccc4)CC3)n2)ccn1 [Compound 18, 6-{4-[1-(2-Azetidin-1-yl-ethyl)-4-(2-isopropyl-pyridin-4-yl)-1H-imidazol-2-yl]-piperidin-1-yl}-5-phenyl-pyrimidin-4-ylamine]
- IC50 (P70S6K (T412E mutant)): < 3 nM
- IC50 (His-AKT (Full Length)): > 15 nM

Compound: CC(C)c1cc(-c2cn(CCN3CCC3)c(C3CCN(c4ncnc(N)c4-c4cccnc4)CC3)n2)ccn1 [Compound 19, 6-{4-[1-(2-Azetidin-1-yl-ethyl)-4-(2-isopropyl-pyridin-4-yl)-1H-imidazol-2-yl]-piperidin-1-yl}-5-Pyridin-3-yl-pyrimidin-4-ylamine]
- IC50 (P70S6K (T412E mutant)): 3 to 15 nM
- IC50 (His-AKT (Full Length)): > 15 nM

Compound: CCOc1c(N)ncnc1N1CCC(c2nc(-c3ccc(F)c(Cl)c3)cn2CCN(C)C)CC1 [Compound 20]
- IC50 (P70S6K (T412E mutant)): < 3 nM
- IC50 (His-AKT (Full Length)): 3 to 15 nM

Compound: Cc1cc(-c2cn(CCN(C)C)c(C3CCN(c4ncnc(N)c4Br)CC3)n2)ccc1F [Compound 21]
- IC50 (P70S6K (T412E mutant)): < 3 nM
- IC50 (His-AKT (Full Length)): < 3 nM

Compound: Cc1cc(-c2cn(CCN(C)C)c(C3CCN(c4ncnc(N)c4Cl)CC3)n2)ccc1F [Compound 22]
- IC50 (P70S6K (T412E mutant)): < 3 nM
- IC50 (His-AKT (Full Length)): < 3 nM

Compound: CN(C)CCn1cc(-c2ccc(F)c(C(F)(F)F)c2)nc1C1CCN(c2ncnc(N)c2Cl)CC1 [Compound 23]
- IC50 (P70S6K (T412E mutant)): < 3 nM
- IC50 (His-AKT (Full Length)): 3 to 15 nM

Compound: CN(C)CCn1cc(-c2ccnc(C(F)(F)F)c2)nc1C1CCN(c2ncnc(N)c2Cl)CC1 [Compound 24]
- IC50 (P70S6K (T412E mutant)): < 3 nM
- IC50 (His-AKT (Full Length)): 3 to 15 nM

Compound: CN(C)CCn1cc(-c2ccnc(C(F)(F)F)c2)nc1C1CCN(c2ncnc(N)c2Br)CC1 [Compound 25]
- IC50 (P70S6K (T412E mutant)): < 3 nM
- IC50 (His-AKT (Full Length)): < 3 nM

Compound: CCOc1c(N)ncnc1N1CCC(c2nc(-c3ccnc(C(F)(F)F)c3)cn2CCN(C)C)CC1 [Compound 26]
- IC50 (P70S6K (T412E mutant)): 3 to 15 nM
- IC50 (His-AKT (Full Length)): 3 to 15 nM

Compound: CCc1c(N)ncnc1N1CCC(c2nc(-c3ccnc(C(F)(F)F)c3)cn2CCN(C)C)CC1 [Compound 27]
- IC50 (P70S6K (T412E mutant)): 3 to 15 nM
- IC50 (His-AKT (Full Length)): > 15 nM

Compound: CC(C)Oc1c(N)ncnc1N1CCC(c2nc(-c3ccnc(C(F)(F)F)c3)cn2CCN(C)C)CC1 [Compound 28]
- IC50 (P70S6K (T412E mutant)): 3 to 15 nM
- IC50 (His-AKT (Full Length)): 3 to 15 nM

Compound: CN(C)CCn1cc(-c2ccnc(C(F)(F)F)c2)nc1C1CCN(c2ncnc(N)c2C#N)CC1 [Compound 29]
- IC50 (P70S6K (T412E mutant)): < 3 nM
- IC50 (His-AKT (Full Length)): 3 to 15 nM
